One series concerns BxPC3 DPC-4(−/−) cells. Description: Measurement of cell cycle (PI flow cytometry). It counts as cell-based, Human. Conditions: 24 to 72 h. As for the experimental part: Measurement of Cell Cycle. The percentage of cells in different cell cycle phases of division was measured by flow cytometry (Darzynkiewicz et al., 1996) using propidium iodide (PI) (Sigma-Aldrich). In brief, cells were treated with PC-046 for 24 to 72 h, fixed with 70% ethanol overnight, and then stained with 40 µg/ml PI and 0.5 mg/ml RNase A for 30 min at 37° C. PI fluorescence was measured on a FACScan (BD Biosciences, San Jose, Calif.) and analyzed using Mod-Fit (Verify Software, Topsham, Me.). Data are mean S.E.M. (n 3).
(§1) Mean±S.E.M., n=3. […] Mean±S.E.M., n=3. […] Mean tumor burden is shown.

The test system of the next series is DU145. Nature of the series: IC50 in tumor cell lines (DU145). It counts as cell-based. Conditions: Table 1; prostate tumor cell line DU145. On the procedure:
(§2) Cytotoxicity Assays. Cytotoxicity assays in the mechanism of action studies were performed according to Mosmann (1983), wherein the activity of mitochondrial reductases were measured using 3-(4,5-dimethylthiozol-3-yl)-2,5-diphenyltetrozolium bromide dye. In brief, cells were seeded in 96-well plates and incubated for various times at 37° C. Inhibition of cell growth was measured by adding 3-(4,5-dimethylthiozol-3-yl)-2,5-diphenyltetrozolium bromide dye, and after an additional 4 h of incubation at 37° C., the 96-well plates were centrifuged, and the culture supernatant was removed. DMSO was added to each well to solubilize the formazan crystals, and the optical density was read at 540 nm on a Quant Spectrophotometer (BioTek Instruments, Winooski, Vt.). Cell growth inhibition data are expressed as percentage of survival compared with untreated cells. The IC50 is defined as the drug concentration required to produce 50% growth inhibition. Results are mean S.E.M. (n 3).

The subject of the next series is MDA231. Description: IC50 in tumor cell lines (MDA231). It counts as cell-based. Conditions: Table 2; breast tumor cell line MDA231. As for the experimental part: as §2
In series [1] the test system is synthesis of DNA, RNA, or protein. Nature of the series: Measurement of macromolecular synthesis (radiolabeled precursors). It counts as cell-based. As for the experimental part: Measurement of Macromolecular Synthesis. Radiolabeled precursors of DNA ([^3H]thymidine) and protein ([^14C]valine) were obtained from GE Healthcare (Piscataway, N.J.). The RNA precursor [^3H]uridine was obtained from MP Biomedical (Irvine, Calif.). In brief, cells were plated in 96-well plates and allowed to adhere before adding DPC-046 for 24 to 72 h. Radiolabeled precursors ([…] for thymidine and uridine, and 0.05 µCi/well for valine) were added and allowed to incorporate for 6 h at 37° C. Cells were harvested onto Unifilter-96 GF/B filterplates using a Packard Filtermate 96-well harvester and counted using a Packard Top Count NXT 96-well scintillation counter (PerkinElmer Life and Analytical Sciences, Boston, Mass.).

For series [2], the system named is BxPC3 DPC-4(+/+) and BxPC3 DPC-4(−/−) cells. Description: Cytotoxicity (96-h MTT) in isogenic BxPC3 cell lines. It counts as cell-based, Human. Conditions: BxPC3 cell lines. As for the experimental part: Cell lines and Culture Conditions. Human pancreatic cancer cell lines MiaPaCa-2 (Yunis et al., 1977), Panc-1 (Lieber et al., 1975), and BxPC3 (Tan et al., 1986) were purchased from the American Type Culture Collection (Manassas, Va.) and cultured in a humidified incubator at 37° C., 5% CO2, in RPMI 1640 medium (CellGro, Manassas, Va.) supplemented with 10% heat-inactivated bovine calf serum, 2 mM L-glutamine, 100 U/ml penicillin, and 100 µg/ml streptomycin (Invitrogen, Carlsbad, Calif.). MiaPaCa-2 (CRL-1420) is an adherent epithelial human pancreatic cancer cell line with a doubling time of approximately 40 h (Yunis et al., 1977). Panc-1 (CRL-1469) is an undifferentiated human pancreatic epithelial cell line with a doubling time of approximately 52 h (Lieber et al., 1975). The BxPC3 cell line DPC-4(−/−) and its isogenic restored wild-type DPC-4(+/+) cell line were developed and cultured as described previously (Wang et al., 2006). In brief, a DPC-4-expressing construct (pMSCVneoDPC-4) was created by amplifying full-length cDNA of DPC-4 using reverse transcriptase-PCR and subcloning into the multiple cloning site of a retroviral vector (pMSCVneo). The DPC-4-expressing construct was cotransfected into the BxPC3 DPC-4(−/−) cells using a packaging cell line, resulting in a cell line that constitutively expresses DPC-4. The expression of DPC-4 was confirmed by Western blotting (Wang et al., 2006).
as §2, §1

Series [3] can be described thus: Storage stability by LC-MS. Format: physicochemical. As for the experimental part: Stability Studies. LC-MS was used to evaluate the stability of DPC-046 kept at −20° C. or at 22° C., unprotected from light. After 2 years of storage, there was a measurable (8.6%) loss of parent compound when stored at −20° C. in the dark and a 43.6% loss at 22° C. in light.
Series [4] in a line: Plasma protein binding (rapid equilibrium dialysis), mouse plasma. It counts as in vitro ADME. Conditions: plasma concentration of 3.27 μM. As for the experimental part:
(§3) Plasma Protein Binding. Plasma protein binding of DPC-046 was determined in human and mouse plasma using rapid equilibrium dialysis (RED) devices manufactured by Thermo Fisher Scientific. Plasma pH was adjusted to 7.4 and spiked with DPC-046 to a final plasma concentration of 1 μg/ml. Aliquots (500 μl) of the spiked plasma were placed into the sample chamber, and 750 μl of phosphate-buffered saline were placed into the adjacent chamber. Triplicate samples were loaded into the RED devices. The RED devices were incubated at 37° C. on an orbital shaker operating at 100 rpm for 24 h. […] After the incubation, aliquots of plasma and buffer were removed for the analysis of DPC-046 concentration by LC-MS-MS as described above.
(Equilibrium dialysis compares concentrations on both sides of a semipermeable membrane.)

A further series addresses T1, IRAK-4 (Homo sapiens, UniProt Q9NWZ3).
T1 construct: assay run by SignalChem Pharmaceuticals, Inc. (Richmond, BC, Canada)
Description: Follow-up kinase screening and IC50 (SignalChem), IRAK-4. It counts as biochemical.

A further series deals with MCF7. Description: IC50 in tumor cell lines (MCF7). Conditions: Table 2; breast tumor cell line MCF7. It counts as cell-based. On the procedure: as §2
Another series relates to H460. Nature of the series: IC50 in tumor cell lines (H460). It counts as cell-based. Conditions: lung tumor cell line H460. On the procedure: as §2
Series [5] can be described thus: Plasma protein binding (rapid equilibrium dialysis), human plasma. Format: in vitro ADME. Conditions: plasma concentration of 3.27 μM. On the procedure: as §3

Molecules are shown by their SMILES. pIC50: −log10 of the molar value. “Also recorded” adds a separate entry of the source.

Usually pIC50 stands for the IC50 on a negative log10 scale, so that one unit is a factor of ten.

T1 sequence (Q9NWZ3 whole entry): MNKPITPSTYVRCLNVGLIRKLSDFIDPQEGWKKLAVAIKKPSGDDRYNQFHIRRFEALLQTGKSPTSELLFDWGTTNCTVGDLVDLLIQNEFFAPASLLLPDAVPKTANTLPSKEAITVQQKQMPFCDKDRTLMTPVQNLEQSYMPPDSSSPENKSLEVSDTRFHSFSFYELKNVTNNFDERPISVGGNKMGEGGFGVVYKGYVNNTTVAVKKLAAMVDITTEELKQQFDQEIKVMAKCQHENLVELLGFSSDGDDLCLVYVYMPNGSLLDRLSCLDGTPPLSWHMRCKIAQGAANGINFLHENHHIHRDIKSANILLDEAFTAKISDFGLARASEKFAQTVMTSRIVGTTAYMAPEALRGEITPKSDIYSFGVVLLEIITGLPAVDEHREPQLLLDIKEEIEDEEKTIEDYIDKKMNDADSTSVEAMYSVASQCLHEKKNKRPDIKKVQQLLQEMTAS

Take `COc1ccc(-c2cnc(-c3ccncc3-c3cccc(OC)c3)o2)cc1` [DPC046]: the “effect on cell cycle phases (in words)” value was “block in the S and G2/M-phases” in the series with BxPC3 DPC-4(−/−) cells (listed as (D)PC-046); “reduction in the percentage of G0/G1-phase cells and a commensurate increase in G2/M-phase cells” with BxPC3 DPC-4(−/−) cells (listed as DPC-046). The pIC50 with DU145 was 7.57; with MDA231, 7.77; in series [1] (DNA, RNA, protein, average, at 72 h, read-out: IC50 for inhibition of synthesis of each macromolecule), about 5.52; with MCF7 it was 7.96; in the series with H460 (Table 1), 7.60; in the series on H460 (Table 2), 7.60. Also, the “selectivity of inhibition of DNA, RNA or protein synthesis (in words)” value in series [1] (24 to 72 h) was “no selective inhibition”. For the same molecule, the figures for the “potency against BxPC3 cell lines (in words)” value in series [2] (listed as DPC-046) and in series [2] (listed as PC-046) were “most potent; also recorded: greatest cytotoxicity” and “high potency”, respectively. Moreover, the “loss of parent compound” value in series [3] (2 years of storage at 22° C. in light) was found to be 43.6%; in [3] (2 years of storage at −20° C. in the dark), 8.6%. In addition, the “bound to plasma proteins” value is on record as 91% in series [4] and 85% in series [5]. The “inhibition of IRAK-4” value against IRAK-4 (25 μM DPC-046, follow-up screen) is “more than 70%”; against IRAK-4 (highest concentration tested (50 μM)) it was 92%.

Source of the values: US8987309B2, “Compounds, pharmaceutical compositions and methods of use of 2-aryl pyridylazoles” (The Translational Genomics Research Institute, priority 2009, dated 2015).
